Assay in all cases: NCI anticancer screen, dose series, 48 h
The test system of experiment [1] is HCT-15 colon.
Experiment [2] has as its system HT29 colon.
In experiment [3] the test system is NCI-H23 lung.
Experiment [4] deals with NCI-H460 lung.
Experiment [5] deals with SW-620 colon.
Experiment [6] relates to TK-10 renal.
The subject of experiment [7] is UACC-257 melanoma.

Structures are written as SMILES.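 Cells were grown in 96-well plates and exposed to each compound for 48 hours at five concentrations; endpoints were interpolated linearly between bracketing concentrations, or set to the highest concentration if not reached. GI50 is the concentration that inhibits growth by half. Definition used: TGI = concentration required for complete inhibition of growth.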

As for `CCCC[C@H]1CCN2C[C@@H](O)[C@@H](O)[C@H]2[C@@H]1O`, the TGI in experiment [1], in experiment [2], in experiment [3], in experiment [4], in experiment [5] and in experiment [6] was more than 100 µM in each case. This compound yielded a TGI in experiment [7] of more than 100 µM.

`CC(=O)O[C@@H](C1C[C@@H](C)[C@H]2[C@@](O)(O1)[C@H](O)[C@@]1(C)C3=CC[C@H]4C(C)(C)[C@@H](OC5OCC(O)C(O)C5O)CC[C@@]45C[C@@]35CC[C@]21C)C(C)(C)O` (stereo partly drawn): the TGI in experiment [1] was 71.1 µM; in experiment [2] it was more than 100 µM; in experiment [3] it was 49 µM; in experiment [4], 40.6 µM; in experiment [5] it was more than 100 µM; in experiment [6], 69.5 µM. In addition, the TGI in experiment [7] turned out to be 38.4 µM.

For the compound `N#Cc1sc2c(c1O)c(=O)n(-c1ccccc1)c(=S)n2-c1ccccc1`, the TGI in experiment [1], in experiment [2], in experiment [3], in experiment [4], in experiment [5] and in experiment [6] was more than 100 µM throughout. The TGI in experiment [7] was more than 100 µM.

In the case of `COCCOC(=O)C(C)=[N+]=[N-]`, the TGI in experiment [1], in experiment [2], in experiment [3], in experiment [4], in experiment [5] and in experiment [6] was more than 100 µM in each case. Moreover, the TGI in experiment [7] is more than 100 µM.

`S=c1[nH]nc(NNc2ccccc2)n1Nc1ccccc1`: the TGI in experiment [1] is more than 100 µM; in experiment [2], more than 100 µM; in experiment [3], more than 100 µM; in experiment [4], more than 54.6 µM; in experiment [5], more than 100 µM; in experiment [6], more than 100 µM. In experiment [7], this compound returned a TGI of more than 69.3 µM.

Take `Nc1nc(N)c2nc(CNc3ccc(C(=O)NC(CCCCNC(=O)c4ccccc4C(=O)O)C(=O)O)cc3)cnc2n1` (stereo not drawn): the GI50 is 0.00522 µM in experiment [1]; 0.00566 µM in experiment [2]; 0.00915 µM in experiment [3]; 0.00424 µM in experiment [4]; 0.00342 µM in experiment [5]. In addition, the TGI in experiment [1], in experiment [2], in experiment [3], in experiment [4], in experiment [5] and in experiment [6] was more than 100 µM each time. In addition, the TGI in experiment [7] was more than 100 µM.

As for `O=c1[nH]n(Cc2ccccc2Cl)c2ccccc12`, the TGI in experiment [1], in experiment [2], in experiment [3], in experiment [4], in experiment [5] and in experiment [6] was more than 100 µM throughout. Further, the TGI in experiment [7] was more than 100 µM.

Regarding `CC(=O)c1sc(=N)n(-c2c(C)cccc2C)c1C`, the TGI in experiment [1], in experiment [2], in experiment [3], in experiment [4], in experiment [5] and in experiment [6] was more than 100 µM each time.

With `COc1ccc(CCc2nccn2C)cc1OC`, the TGI in experiment [1], in experiment [2], in experiment [3], in experiment [4], in experiment [5] and in experiment [6] was more than 100 µM each time. This compound had a TGI in experiment [7] of more than 100 µM.

On to `COc1ccccc1CNC(=O)[C@H](Cc1ccc(O)cn1)NC(C)=O`, for which the TGI in experiment [1], in experiment [2], in experiment [3], in experiment [4], in experiment [5] and in experiment [6] was more than 100 µM throughout. For the same compound, in experiment [7], the TGI is more than 100 µM.

Turning to `C=CCN1CN(c2ccccc2)C2(CCN(CCCC3(c4ccc(F)cc4)OCCO3)CC2)C1=O`, the TGI in experiment [1] stood at 25.7 µM; in experiment [2] it was 20.4 µM; in experiment [3], 30 µM; in experiment [5], 36.9 µM; in experiment [6], 33.5 µM; in experiment [7], 33.3 µM.

In the case of `N#CCCN(CCN(CCC#N)C(=O)Nc1ccccc1)C(=O)Nc1ccccc1`, the TGI in experiment [1], in experiment [2], in experiment [3], in experiment [4], in experiment [5] and in experiment [6] was more than 100 µM each time. Moreover, the TGI in experiment [7] was more than 100 µM.

As to `O=C(NNC(=O)c1ccccc1O)c1ccc(O)cc1`, the TGI in experiment [1], in experiment [2], in experiment [4], in experiment [5], in experiment [6] and in experiment [7] was more than 100 µM throughout.

As to `CCOC(=O)C(=O)C(CCC(=O)c1ccc2ccccc2c1O)C(=O)OCC` (stereo not drawn), the TGI in experiment [1], in experiment [2], in experiment [3], in experiment [4], in experiment [5] and in experiment [7] was more than 100 µM in each case.

Turning to `CC1=C(C(=O)OC(C)C)C(c2ccccc2C(F)(F)F)C(C(=O)OC(CO[N+](=O)[O-])CO[N+](=O)[O-])=C(C)N1` (stereo not drawn), the TGI is 93.8 µM in experiment [1]; 26.3 µM in experiment [2]; more than 100 µM in experiment [3]; 42.6 µM in experiment [4]; 23.3 µM in experiment [5]; more than 100 µM in experiment [6].

Consider `Cc1cc(-c2nc3cccc(F)c3s2)ccc1N`, for which the TGI in experiment [1], in experiment [2], in experiment [4], in experiment [5], in experiment [6] and in experiment [7] was more than 100 µM in each case.

Turning to `COc1ccc(N=[N+]([O-])c2ccc(OC)cc2)cc1`, the TGI in experiment [1], in experiment [2], in experiment [3], in experiment [4], in experiment [6] and in experiment [7] was more than 100 µM in each case.

Regarding `CC1OC(OC2C(Oc3cc(O)c4c(c3)O[C@H](c3ccc(O)cc3)CC4=O)OC(CO)C(O)C2O)C(O)C(O)C1O` (stereo partly drawn), the TGI in experiment [1], in experiment [2], in experiment [3], in experiment [5], in experiment [6] and in experiment [7] was more than 100 µM in each case.

The values above are taken from PubChem BioAssay (NCI).
